Counter-ions that a name gives are not always drawn. Where no end group is shown, it is not given here.
B1: EPAS1 peptide (FITC-labeled) (peptide)
peptide: ELDLETLAPYIPMDGEDFQL
modifications: also: FITC label, position not given here
notes: The FP assay used 200 nM of FITC-labeled peptide; also called EPAS1-derived peptide
B2: HIF peptide (FITC-labeled) (peptide)
peptide: DLDLEALAPYIPADDDFQLR
modifications: also: FITC label, position not given here
notes: The FP assay used 200 nM of FITC-labeled peptide; also called HIF1 peptide

Columns and labels:
MG-63 cells = test: Collagen-I immunofluorescence in MG-63 cells treated with iron chelator; format: cell-based, human; details: 48 hours
Experimental: For microscopy images, cells were cultured in a 24-well plate and incubated with medium supplemented with the indicated concentrations of the treating entity (e.g., peptides or DFO) at 37° C. under 5% CO2. Cells were then washed additional three times with cold phosphate-buffered saline (PBS), following a 20 minute fixation in a 4% paraformaldehyde (PFA) in PBS and extensively washed three times with PBS to remove the PFA, followed by a 20 minute wash with blocking and penetration solution (PBS with 0.1% Triton X-100 and 2% BSA). Fixed cells were incubated with antibodies for 1 hour at 25° C., washed, and developed together with fluorescence-tagged secondary antibodies (Alexa 488 and 647, Abcam). Cell nuclei were stained with 1 mg/mL 4′,6-diamidino-2-phenylindole (DAPI Staining Solution ab228549, Abcam). Images were taken using a ZEISS LSM 900 in confocal mode, using Zen 3.1. Fluorescence readouts were obtained at ex/em of 358/461, 495/519 nm, and 652/668 nm for blue, green, and red, respectively.
The present inventors have incubated MG-63 cells with deferoxamine mesylate (DFO), an iron chelator, to explore the possibility of enhancing Collagen-I levels in these cells.

NIH/3T3 cell line [1] = test: Collagen type 1 immunofluorescence in NIH/3T3 cells (Incucyte); format: cell-based, mouse; details: 48 hours; for concentrations with significant increase of collagen type 1 normalized to number of cells vs untreated cells: serial dilution 5-0.02 μM, one-way ANOVA
Experimental: (§1) Embryonic mouse fibroblast NIH/3T3 cell line (ATCC) were seeded at a concentration of 50*10^3 cells/well on 96 well glass bottom plate (P96-1.5H-N, Cellvis) for the immunofluorescence experiment and on cell culture microplate, 96 well, PS, F-Bottom (655090, greiner) for the viability experiment. The cells were cultured with Dulbecco's modified Eagle's medium (DMEM) supplemented with 10% fetal calf serum, 1% Penicillin-Streptomycin solution and 1% L-glutamine (All purchased from Rhenium). At 24 hours post seeding, cells were treated for another 48 hours by replacing them with the cell medium supplemented with a serial dilution (5-0.02 μM, factor dilution of 2) of the ML228, Daprodustat, Enarodustat, Molidustat, Vadadustat or Roxadustat molecules dissolved in DMSO. The final DMSO concentration in the cell medium was 0.01%. Cells were maintained in an incubator at 37° C. in a humidified atmosphere containing 5% CO2.
At 48 hours post treatment with either Daprodustat, Enarodustat, Molidustat, Vadadustat or Roxadustat, cells were fixed for 10 minutes together with their media with 8% paraformaldehyde (PFA, Electron Microscopy Sciences) dissolved in phosphate-buffered saline (PBS, Invitrogen) to a final concentration of 4% PFA, without any wash to avoid cells detachment from the glass. Cells were briefly washed four times with ice-cold PBS to remove the PFA and kept overnight at 4° C. The following day, a blocking solution which contains 1.5% Bovine Serum Albumin (Sigma Aldrich) dissolved in PBS was applied for 30 minutes, followed by an overnight incubation at 4° C. with recombinant rabbit anti-mouse Collagen-I 1° antibody (primary Ab) [EPR24331-53] (ab270993, Abcam), dissolved in the blocking solution (1:1000 dilution). The following day, cells were washed for 3 times with PBS (5 minutes each), followed by immunostaining with goat anti-rabbit IgG H&L (Alexa Fluor® 488) 2° antibody (secondary Ab) (ab150077, Abcam) dissolved in blocking solution (1:1000 dilution). Cells were washed again for 3 times with PBS (5 minutes each), stained for 30 minutes with DRAQ5™ (ab108410, Abcam) for nuclei staining dissolved in PBS (1:1000 dilution), and washed once again with PBS. For the ML228 experiment, cells were washed with PBS before applying 4% PFA dissolved in PBS. Then, fixed cells were additionally permeabilized with 0.2% Triton™ X-100 (Merck) dissolved in PBS, additionally stained with Phalloidin-Atto 594 (51927, Sigma Aldrich) for F-Actin staining for 1 hour (1:250 dilution) together with the aforementioned secondary antibody, followed by 10 minutes incubation with DAPI staining solution (ab228549, Abcam) for nuclei staining dissolved in PBS (1:1000 dilution).
Images were taken using a ZEISS LSM 900 in wide-field or in the LSM confocal detection mode (ML228 experiment), using Zen 3.1. Fluorescence readouts were obtained at excitation/emission: 353/465 nm (DAPI), 493/517 nm (Collagen-I), 590/618 (F-Actin) and 647/683 nm (DRAQ5) using a Plan-Apochromat 20×/0.8 M27 objective.
Image acquisition and quantification were performed by Incucyte SX5 (Sartorius) using software version 2022B Rev2. A standard scan was done for 9 images per well using 20× objective, 2 optical modules (green at excitation/emission of 453-485 nm/494-533 nm in 300 msec acquisition time, and near-IR at excitation/emission of 648-674 nm/685-756 nm in 400 msec acquisition time, including Phase channel) following immunofluorescence protocol. For the image analysis, 2-6 replicates per condition were used. Using the Basic Analyzer mode, “Phase Object Confluence (%)” was acquired using the Phase channel. This measurement is the percentage of the image area occupied by cells. “Total Collagen-I Integrated Intensity Per Image (GCU×μm^2/Image)” was acquired using the green optical module. GCU stands for Green calibrated Unit, while this measurement is the total sum of the Collagen-I objects' fluorescent intensity in the image. “#Cells (Per image)” was acquired by the near-IR optical module. […]

NIH/3T3 cell line [2] = test: Cell confluence / number of cells per image in NIH/3T3 cells; format: cell-based, mouse; details: 48 hours; for toxicity suggested by number of cells: 5-0.02 μM
Experimental: as §1
Image acquisition and quantification were performed by Incucyte SX5 (Sartorius) using software version 2022B Rev2. A standard scan was done for 9 images per well using 20× objective, 2 optical modules (green at excitation/emission of 453-485 nm/494-533 nm in 300 msec acquisition time, and near-IR at excitation/emission of 648-674 nm/685-756 nm in 400 msec acquisition time, including Phase channel) following immunofluorescence protocol. For the image analysis, 2-6 replicates per condition were used. Using the Basic Analyzer mode, “Phase Object Confluence (%)” was acquired using the Phase channel. This measurement is the percentage of the image area occupied by cells. “Total Collagen-I Integrated Intensity Per Image (GCU×μm^2/Image)” was acquired using the green optical module. GCU stands for Green calibrated Unit, while this measurement is the total sum of the Collagen-I objects' fluorescent intensity in the image. “#Cells (Per image)” was acquired by the near-IR optical module. This measurement was calculated by counting the number of nuclei per image.
Multiple comparisons were performed by ordinary one-way ANOVA followed by Dunnett's post-hoc statistical hypothesis for comparing each condition mean to the control mean. Statistical analysis was done using GraphPad Prism version 10.0.0 for Windows, GraphPad Software, Boston, Massachusetts USA, worldwideweb(dot)graphpad(dot)com. For statistical analysis, significance was set as (*) p≤0.05; (**) p≤0.01; (***) p≤0.001; (****) p≤0.0001 and (ns; not significant) p>0.05.

[3] = target: T1, PHD2/EGLN1 (HIF-prolyl hydroxylase 2) (human, UniProt Q9GZT9 181-426); test: fluorescence polarization; PHD protein titrated into 200 nM FITC-labeled peptide; single site fit
T1 construct: The protein was expressed as a cleavable GST fusion and the eluate of the GST column was used; also called PHD enzyme; PHD protein
T1 sequence (Q9GZT9 other isoform, or with tags, fused parts or gaps limits assumed): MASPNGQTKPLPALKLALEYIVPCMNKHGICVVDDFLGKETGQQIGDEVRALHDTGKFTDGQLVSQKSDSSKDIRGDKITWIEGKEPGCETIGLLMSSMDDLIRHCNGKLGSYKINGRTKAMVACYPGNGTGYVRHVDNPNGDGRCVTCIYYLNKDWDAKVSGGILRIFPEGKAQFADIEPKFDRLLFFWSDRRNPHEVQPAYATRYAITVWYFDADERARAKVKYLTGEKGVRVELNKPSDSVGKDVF
Experimental: Fluorescence polarization (FP) assay—Fluorescence Polarization (FP) measurements were performed on samples arrayed in a 96-well plate using Biotek HybridH1 reader equipped with a polarized optic system. Binding assay was evaluated by adding variable concentrations of PHD protein into 200 nM of FITC-labeled peptides. Experimental polarization data were fitted using GraphPad Prism9 into a single site binding model, with error bars representing standard deviation.

Molecule	concentrations with significant increase of collagen type 1 normalized to number of cells vs untreated cells (NIH/3T3 cell line [1]) [µM]	toxicity suggested by number of cells (NIH/3T3 cell line [2])	number of cells compared to untreated cells (NIH/3T3 cell line [2]; serial dilution 5-0.02 μM)	other results
CC(=O)N(O)CCCCCNC(=O)CCC(=O)N(O)CCCCCNC(=O)CCC(=O)N(O)CCCCCN [DFO, Deferoxamine mesylate]				DFO concentration giving maximal Collagen-I levels (MG-63 cells; normalized to β-tubulin): 10 to 20 µM; Collagen-I production (MG-63 cells; even at low DFO concentrations such as 0.15 μM): increased Collagen-I production
O=C(O)CNC(=O)C1C(=O)N(C2CCCCC2)C(=O)N(C2CCCCC2)C1=O [Daprodustat, N-[(1,2-Dicyclohexylhexahydro-2,4,6-trioxo-5-pyrimidinyl)carbonyl]glycine]	0.31 to 5	no toxicity	no significant difference	number of cells compared to untreated cells (NIH/3T3 cell line [2]; 0.08 μM Daprodustat, p<0.0001): lower number of cells
O=C(O)CNC(=O)c1c(O)cc(CCc2ccccc2)n2ncnc12 [Enarodustat, N-[[7-Hydroxy-5-(2-phenylethyl)[1,2,4]triazolo[1,5-a]pyridin-8-yl]carbonyl]glycine]	0.31 to 5	no toxicity	no significant difference	
O=c1c(-n2ccnn2)c[nH]n1-c1cc(N2CCOCC2)ncn1 [Molidustat, 1,2-Dihydro-2-[6-(4-morpholinyl)-4-pyrimidinyl]-4-(1H-1,2,3-triazol-1-yl)-3H-pyrazol-3-one]	0.63 to 5	toxic effect	significantly lower	
Cc1nc(C(=O)NCC(=O)O)c(O)c2ccc(Oc3ccccc3)cc12 [Roxadustat, N-[(4-Hydroxy-1-methyl-7-phenoxy-3-isoquinolinyl)carbonyl]glycine]	0.08 to 5	no toxicity	significantly higher	
O=C(O)CNC(=O)c1ncc(-c2cccc(Cl)c2)cc1O [Vadadustat, N-[[5-(3-Chlorophenyl)-3-hydroxy-2-pyridinyl]carbonyl]glycine]		no toxicity	significantly higher	collagen type 1 expression compared to untreated cells (NIH/3T3 cell line [1]; 0.02-5 μM): significant increase
B1				Kd [3]: 4 µM
B2				Kd [3]: 7 µM
